Measured values taken from PubChem BioAssay (NCI).
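Assay format: 96-well plates, 48-hour exposure. The concentration for 50% growth inhibition is given as GI50. At the TGI there is no net growth.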

Legend:
Assay in all cases: NCI anticancer screen, dose series, 48 h
IGROV1 ovarian = system: IGROV1 ovarian
MDA-MB-231 breast = system: MDA-MB-231 breast
ACHN renal = system: ACHN renal
OVCAR-5 ovarian = system: OVCAR-5 ovarian
UO-31 renal = system: UO-31 renal
T-47D breast = system: T-47D breast
SNB-75 CNS = system: SNB-75 CNS
HT29 colon = system: HT29 colon
U251 CNS = system: U251 CNS
HCT-15 colon = system: HCT-15 colon
OVCAR-8 ovarian = system: OVCAR-8 ovarian
MDA-MB-435 = system: MDA-MB-435
K-562 leukemia = system: K-562 leukemia
786-0 renal = system: 786-0 renal
SN12C renal = system: SN12C renal
SF-268 CNS = system: SF-268 CNS
HCT-116 colon = system: HCT-116 colon
SK-OV-3 ovarian = system: SK-OV-3 ovarian
EKVX NSCLC = system: EKVX NSCLC
DU-145 prostate = system: DU-145 prostate
MALME-3M melanoma = system: MALME-3M melanoma
PC-3 prostate = system: PC-3 prostate
SR leukemia = system: SR leukemia
HOP-62 NSCLC = system: HOP-62 NSCLC
SF-539 CNS = system: SF-539 CNS
SNB-19 CNS = system: SNB-19 CNS
SW-620 colon = system: SW-620 colon
HCC-2998 colon = system: HCC-2998 colon
NCI-H226 lung = system: NCI-H226 lung
NCI-H23 lung = system: NCI-H23 lung
SK-MEL-2 melanoma = system: SK-MEL-2 melanoma
MCF7 breast = system: MCF7 breast
UACC-62 melanoma = system: UACC-62 melanoma
MDA-MB-468 breast = system: MDA-MB-468 breast
BT-549 breast = system: BT-549 breast
OVCAR-4 ovarian = system: OVCAR-4 ovarian
HOP-92 NSCLC = system: HOP-92 NSCLC
MOLT-4 leukemia = system: MOLT-4 leukemia
RPMI-8226 leukemia = system: RPMI-8226 leukemia
SK-MEL-28 melanoma = system: SK-MEL-28 melanoma
A498 renal = system: A498 renal
A549 NSCLC = system: A549 NSCLC
RXF 393 renal = system: RXF 393 renal
M14 melanoma = system: M14 melanoma
KM12 colon = system: KM12 colon
TK-10 renal = system: TK-10 renal
LOX IMVI melanoma = system: LOX IMVI melanoma
NCI-H522 lung = system: NCI-H522 lung
UACC-257 melanoma = system: UACC-257 melanoma
SF-295 CNS = system: SF-295 CNS
HS 578T breast = system: HS 578T breast
CCRF-CEM leukemia = system: CCRF-CEM leukemia
NCI/ADR-RES ovarian = system: NCI/ADR-RES ovarian
CAKI-1 renal = system: CAKI-1 renal
OVCAR-3 ovarian = system: OVCAR-3 ovarian
SK-MEL-5 melanoma = system: SK-MEL-5 melanoma
HL-60(TB) leukemia = system: HL-60(TB) leukemia
NCI-H460 lung = system: NCI-H460 lung
COLO 205 colon = system: COLO 205 colon

SMILES: CCN1C(=O)N(CC)C2NNC(Sc3c(C(=O)O)c4ccccc4n(C4CCCC4)c3=O)=NC21 (stereo not drawn)
- GI50 (IGROV1 ovarian): 4.41 µM
- TGI (IGROV1 ovarian): 29.4 µM
- GI50 (MDA-MB-231 breast): 3.03 µM
- TGI (MDA-MB-231 breast): 11.5 µM
- GI50 (ACHN renal): 4.36 µM
- TGI (ACHN renal): 16.3 µM
- GI50 (OVCAR-5 ovarian): 4.09 µM
- TGI (OVCAR-5 ovarian): 22.1 µM
- GI50 (UO-31 renal): 4.38 µM
- TGI (UO-31 renal): 22.9 µM
- GI50 (T-47D breast): 7.2 µM
- TGI (T-47D breast): 72.7 µM
- GI50 (SNB-75 CNS): 1.51 µM
- TGI (SNB-75 CNS): 11.8 µM
- GI50 (HT29 colon): 3.13 µM
- TGI (HT29 colon): 10.5 µM
- GI50 (U251 CNS): 3.66 µM
- TGI (U251 CNS): 15.3 µM
- GI50 (HCT-15 colon): 2.85 µM
- TGI (HCT-15 colon): 11.2 µM
- GI50 (OVCAR-8 ovarian): 3.28 µM
- TGI (OVCAR-8 ovarian): 12.7 µM
- GI50 (MDA-MB-435): 1.47 µM
- TGI (MDA-MB-435): 3.85 µM
- GI50 (K-562 leukemia): 3.13 µM
- TGI (K-562 leukemia): > 100 µM
- GI50 (786-0 renal): 4.36 µM
- TGI (786-0 renal): 19.4 µM
- GI50 (SN12C renal): 3.41 µM
- TGI (SN12C renal): 16.1 µM
- GI50 (SF-268 CNS): 4.47 µM
- TGI (SF-268 CNS): 45.4 µM
- GI50 (HCT-116 colon): 3.09 µM
- TGI (HCT-116 colon): 11.2 µM
- GI50 (SK-OV-3 ovarian): 3.35 µM
- TGI (SK-OV-3 ovarian): 20.8 µM
- GI50 (EKVX NSCLC): 4.69 µM
- TGI (EKVX NSCLC): 27.4 µM
- GI50 (DU-145 prostate): 3.91 µM
- TGI (DU-145 prostate): 18.3 µM
- GI50 (MALME-3M melanoma): 7.36 µM
- TGI (MALME-3M melanoma): 25.6 µM
- GI50 (PC-3 prostate): 4.06 µM
- TGI (PC-3 prostate): 33.6 µM
- GI50 (SR leukemia): 3.4 µM
- TGI (SR leukemia): 35.7 µM
- GI50 (HOP-62 NSCLC): 5.75 µM
- TGI (HOP-62 NSCLC): 37.2 µM
- GI50 (SF-539 CNS): 2.14 µM
- TGI (SF-539 CNS): 5.51 µM
- GI50 (SNB-19 CNS): 4.59 µM
- TGI (SNB-19 CNS): 57.3 µM
- GI50 (SW-620 colon): 3.3 µM
- TGI (SW-620 colon): 17.1 µM
- GI50 (HCC-2998 colon): 2.84 µM
- TGI (HCC-2998 colon): 9.8 µM
- GI50 (NCI-H226 lung): 4.34 µM
- TGI (NCI-H226 lung): 17.7 µM
- GI50 (NCI-H23 lung): 3.44 µM
- TGI (NCI-H23 lung): 15.4 µM
- GI50 (SK-MEL-2 melanoma): 4.15 µM
- TGI (SK-MEL-2 melanoma): 19.4 µM
- GI50 (MCF7 breast): 2.07 µM
- TGI (MCF7 breast): 13.3 µM
- GI50 (UACC-62 melanoma): 3.05 µM
- TGI (UACC-62 melanoma): 16.3 µM
- GI50 (MDA-MB-468 breast): 2.02 µM
- TGI (MDA-MB-468 breast): 6.05 µM
- GI50 (BT-549 breast): 9.6 µM
- TGI (BT-549 breast): 24.4 µM
- GI50 (OVCAR-4 ovarian): 6.15 µM
- TGI (OVCAR-4 ovarian): 45 µM
- GI50 (HOP-92 NSCLC): 10.3 µM
- TGI (HOP-92 NSCLC): 35 µM
- GI50 (MOLT-4 leukemia): 3.88 µM
- TGI (MOLT-4 leukemia): 50.3 µM
- GI50 (RPMI-8226 leukemia): 4.17 µM
- TGI (RPMI-8226 leukemia): 25.9 µM
- GI50 (SK-MEL-28 melanoma): 6.95 µM
- TGI (SK-MEL-28 melanoma): 25.7 µM
- GI50 (A498 renal): 14.8 µM
- TGI (A498 renal): 42.8 µM
- GI50 (A549 NSCLC): 4.04 µM
- TGI (A549 NSCLC): 17.8 µM
- GI50 (RXF 393 renal): 2.85 µM
- TGI (RXF 393 renal): 11.9 µM
- GI50 (M14 melanoma): 3.28 µM
- TGI (M14 melanoma): 13.3 µM
- GI50 (KM12 colon): 3.3 µM
- TGI (KM12 colon): 16.9 µM
- GI50 (TK-10 renal): 10.3 µM
- TGI (TK-10 renal): 31.3 µM
- GI50 (LOX IMVI melanoma): 3.87 µM
- TGI (LOX IMVI melanoma): 16.2 µM
- GI50 (NCI-H522 lung): 1.54 µM
- TGI (NCI-H522 lung): 3.74 µM
- GI50 (UACC-257 melanoma): 7.65 µM
- TGI (UACC-257 melanoma): 28.2 µM
- GI50 (SF-295 CNS): 2.41 µM
- TGI (SF-295 CNS): 7.88 µM
- GI50 (HS 578T breast): 2.21 µM
- TGI (HS 578T breast): 8.88 µM
- GI50 (CCRF-CEM leukemia): 3.45 µM
- TGI (CCRF-CEM leukemia): 38.3 µM
- GI50 (NCI/ADR-RES ovarian): 1.92 µM
- TGI (NCI/ADR-RES ovarian): 4.42 µM
- GI50 (CAKI-1 renal): 3.97 µM
- TGI (CAKI-1 renal): 16.5 µM
- GI50 (OVCAR-3 ovarian): 3.21 µM
- TGI (OVCAR-3 ovarian): 12.8 µM
- GI50 (SK-MEL-5 melanoma): 3.49 µM
- TGI (SK-MEL-5 melanoma): 13.6 µM
- GI50 (HL-60(TB) leukemia): 2.35 µM
- TGI (HL-60(TB) leukemia): 6.86 µM
- GI50 (NCI-H460 lung): 2.6 µM
- TGI (NCI-H460 lung): 10.7 µM
- GI50 (COLO 205 colon): 2.04 µM
- TGI (COLO 205 colon): 4.16 µM
